The first test concerns m-IMCD3 cells. Briefly: Inhibition of PGE2-stimulated in vitro cyst formation in m-IMCD3 cells. Particulars: Mus musculus, mIMCD3, 144 h, 3 μM; mean cyst area, 100% for (DMSO + PGE2) and 0% for DMSO control; 6 days of culture; read-out: % Cyst area after incubation with 3 μM test compound. The class given is cell-based, mouse. The procedure: HEK 293 and MDCK cells (Public Health England, Cell Culture Collections) were maintained in Dulbecco's Modified Eagle's Medium (DMEM) supplemented with 10% (v/v) fetal bovine serum (FBS) (Seralab), 2 mM L-glutamine and 100 U/mL penicillin streptomycin cocktail (ThermoFisher); termed complete media. Clonal HEK 293 cell lines were maintained in complete media supplemented with 0.6 mg/ml G418 (Enzo Life Sciences). Mouse inner medullary collecting duct (m-IMCD3) cells [American Type Culture Collection (ATCC)] were maintained in media consisting of DMEM/Hams F-12 50/50 Mix (DMEM F12; Corning) supplemented with penicillin streptomycin cocktail (100 U/mL) and FBS (10% v/v) (DMEM F12-10% FBS).
The mouse Inner Medullary Collecting Duct cell line (m-IMCD3) spontaneously forms cystic spheroids in 3D culture with a Type 1 collagen/Matrigel extracellular matrix. This process can be stimulated with agents which raise intracellular cAMP and is used as an in vitro model for the formation of cystic structures in the kidneys of patients with ADPKD.
Rat Collagen I (Fisher Scientific) is prepared on ice by neutralising with 1M NaOH and diluting with a 2× volume of DMEM/F12+10% FBS. This is mixed 1:1.1 with ice cold Matrigel (Corning) for coating plates (coating mix), and 1:0.93 with Matrigel for cell plating (plating mix).
The assay is conducted in the wells of a 96-well plate culture dish using a total volume of 130 μL of collagen/Matrigel/DMEM F12-10% FBS suspension in growth media for each matrix plug per individual well. Initially, 30 μL of collagen/Matrigel/DMEM F12-10% FBS (coating mix) is added into the well of a 96 well plate and the collagen is set to a gel by incubating at 37° C. for at least 15 minutes. A second layer of 100 μL collagen/Matrigel suspension (plating mix) containing m-IMCD3 cells (2.75×10^6 m-IMCD3 cells per 96-well plate) is layered over the coating mix and the collagen/Matrigel/cell mix again set to a gel by incubating at 37° C. Cell cultures are maintained at 37° C. in an atmosphere of 5% CO2, 95% air.
Between 18 and 24 h after plating, test compound(s) as DMSO stock solutions [0.1% (v/v) final DMSO concentration] and PGE2 (100 nM final concentration) in DMEM F12-10% FBS are added in quadruplicate wells per condition. Media, together with the test compound and PGE2 are replenished after 2 or 3 days. After 6 days of culture z stack images of the wells are captured using the Nikon Eclipse Ti2-E microscope. Nikon General Analysis software is used to measure the following parameters in each well: the mean cyst area, the number of cysts, and the total cyst area.
PDE4 long form activators inhibited in vitro cyst formation in m-IMCD3 cells. Data are shown in Table 4 as mean cyst area (%), compared to 100% for (DMSO+PGE2) and 0% for DMSO control.
Take `CC(C)C(C)(C)C(=O)N1CCc2nc(N3C4CCC3CNC4)sc2C1` [Example 161, 1-(2-(3,8-diazabicyclo[3.2.1]octan-8-yl)-6,7-dihydrothiazolo[5,4-c]pyridin-5(4H)-yl)-2,2,3-trimethylbutan-1-one]: the activity at 3 µM is -3%.
Turning to `Cc1cc(F)ccc1C(=O)N1CCc2nc(N3C4CCC3CNC4)sc2C1` [Example 216, (2-(3,8-diazabicyclo[3.2.1]octan-8-yl)-6,7-dihydrothiazolo[5,4-c]pyridin-5(4H)-yl)(4-fluoro-2-methylphenyl)methanone], the activity at 3 µM was -3%.
`N#Cc1ccccc1OCC(=O)N1CCc2nc(N3C4CCC3CNC4)sc2C1` [Example 167, 2-(2-(2-(3,8-diazabicyclo[3.2.1]octan-8-yl)-6,7-dihydrothiazolo[5,4-c]pyridin-5(4H)-yl)-2-oxoethoxy)benzonitrile]: the activity at 3 µM was found to be 19%.
Turning to `O=C(Oc1ccccc1)N1CCc2nc(N3C4CCC3CNC4)sc2C1` [Example 247, phenyl 2-(3,8-diazabicyclo[3.2.1]octan-8-yl)-6,7-dihydrothiazolo[5,4-c]pyridine-5(4H)-carboxylate], the activity at 3 µM stood at 18%.
For `O=C(c1ccc(F)cc1)N1CCc2nc(N3C4CCC3CNC4)sc2C1` [Example 198, (2-(3,8-diazabicyclo[3.2.1]octan-8-yl)-6,7-dihydrothiazolo[5,4-c]pyridin-5(4H)-yl)(4-fluorophenyl)methanone], the activity at 3 µM is -5%.
On to `COc1cccc(C#N)c1OCC(=O)N1CCc2nc(N3C4CCC3CNC4)sc2C1` [Example 168, 2-(2-(2-(3,8-diazabicyclo[3.2.1]octan-8-yl)-6,7-dihydrothiazolo[5,4-c]pyridin-5(4H)-yl)-2-oxoethoxy)-3-methoxybenzonitrile], for which the activity at 3 µM is -3%.
In the case of `O=C(c1ccc(OC(F)F)cc1)N1CCc2nc(N3C4CCC3CNC4)sc2C1` [Example 204, (2-(3,8-diazabicyclo[3.2.1]octan-8-yl)-6,7-dihydrothiazolo[5,4-c]pyridin-5(4H)-yl)(4-(difluoromethoxy)phenyl)methanone], the activity at 3 µM was determined as 4%.
`O=C(c1ccc(C(F)F)nc1)N1CCc2nc(N3C4CCC3CNC4)sc2C1` [Example 243, (2-(3,8-diazabicyclo[3.2.1]octan-8-yl)-6,7-dihydrothiazolo[5,4-c]pyridin-5(4H)-yl)(6-(difluoromethyl)pyridin-3-yl)methanone]: the activity at 3 µM worked out at 10%.
Consider `N#Cc1ccc(C(=O)N2CCc3nc(N4C5CCC4CNC5)sc3C2)cc1` [Example 239, 4-(2-(3,8-diazabicyclo[3.2.1]octan-8-yl)-4,5,6,7-tetrahydrothiazolo[5,4-c]pyridine-5-carbonyl)benzonitrile], for which the activity at 3 µM was -2%.
Take `O=C(c1ccccn1)N1CCc2nc(N3C4CCC3CNC4)sc2C1` [Example 201, (2-(3,8-diazabicyclo[3.2.1]octan-8-yl)-6,7-dihydrothiazolo[5,4-c]pyridin-5(4H)-yl)(pyridin-2-yl)methanone]: the activity at 3 µM came to 17%.
In the case of `O=C(C1Cc2ccccc2CO1)N1CCc2nc(N3C4CCC3CNC4)sc2C1` (stereo not drawn) [Example 183, (2-(3,8-diazabicyclo[3.2.1]octan-8-yl)-6,7-dihydrothiazolo[5,4-c]pyridin-5(4H)-yl)(isochroman-3-yl)methanone], the activity at 3 µM was determined as 0%.

Staying with this test, now noted: Mus musculus, mIMCD3, 144 h, 10 μM; mean cyst area, 100% for (DMSO + PGE2) and 0% for DMSO control; 6 days of culture; read-out: % Cyst area after incubation with 10 μM test compound.
For `CC(C)(C)C(=O)N1CCc2nc(N3C4CCC3CNC4)sc2C1` [Example 65, 1-(2-(3,8-diazabicyclo[3.2.1]octan-8-yl)-6,7-dihydrothiazolo[5,4-c]pyridin-5(4H)-yl)-2,2-dimethylpropan-1-one], the activity at 10 µM is -2%.
Turning to `CC(C)(C(=O)N1CCc2nc(N3C4CCC3CNC4)sc2C1)C(F)(F)F` [Example 32, 1-(2-(3,8-diazabicyclo[3.2.1]octan-8-yl)-6,7-dihydrothiazolo[5,4-c]pyridin-5(4H)-yl)-3,3,3-trifluoro-2,2-dimethylpropan-1-one], the activity at 10 µM came to 1%.
Turning to `COC(C(=O)N1CCc2nc(N3C4CCC3CNC4)sc2C1)c1ccc(F)cc1` (stereo not drawn) [Example 131, 1-(2-(3,8-diazabicyclo[3.2.1]octan-8-yl)-6,7-dihydrothiazolo[5,4-c]pyridin-5(4H)-yl)-2-(4-fluorophenyl)-2-methoxyethan-1-one], the activity at 10 µM is -9%.
On to `CC(C)NC(=O)N1CCc2nc(N3C4CCC3CNC4)sc2C1` [Example 51, 2-(3,8-diazabicyclo[3.2.1]octan-8-yl)-N-isopropyl-6,7-dihydrothiazolo[5,4-c]pyridine-5(4H)-carboxamide], for which the activity at 10 µM was determined as 9%.
On to `O=C(CC1CCC(F)(F)CC1)N1CCc2nc(N3C4CCC3CNC4)sc2C1` [Example 2, 1-(2-(3,8-diazabicyclo[3.2.1]octan-8-yl)-6,7-dihydrothiazolo[5,4-c]pyridin-5(4H)-yl)-2-(4,4-difluorocyclohexyl)ethan-1-one], for which the activity at 10 µM was 2%.
In the case of `O=C(CC12CC(C1)C2)N1CCc2nc(N3C4CCC3CNC4)sc2C1` [Example 12, 1-(2-(3,8-diazabicyclo[3.2.1]octan-8-yl)-6,7-dihydrothiazolo[5,4-c]pyridin-5(4H)-yl)-2-(bicyclo[1.1.1]pentan-1-yl)ethan-1-one], the activity at 10 µM is -2%.
On to `CN1CC2CCC(C1)N2c1nc2c(s1)CN(C(=O)CC1CCCC1)CC2` [Example 75, 2-cyclopentyl-1-(2-(3-methyl-3,8-diazabicyclo[3.2.1]octan-8-yl)-6,7-dihydrothiazolo[5,4-c]pyridin-5(4H)-yl)ethan-1-one], for which the activity at 10 µM is -4%.
In the case of `O=C(CC1CCOCC1)N1CCc2nc(N3C4CCC3CNC4)sc2C1` [Example 3, 1-(2-(3,8-diazabicyclo[3.2.1]octan-8-yl)-6,7-dihydrothiazolo[5,4-c]pyridin-5(4H)-yl)-2-(tetrahydro-2H-pyran-4-yl)ethan-1-one], the activity at 10 µM was 13%.
With `CC1(C)CC(CC(=O)N2CCc3nc(N4C5CCC4CNC5)sc3C2)C1` [Example 119, 1-(2-(3,8-diazabicyclo[3.2.1]octan-8-yl)-6,7-dihydrothiazolo[5,4-c]pyridin-5(4H)-yl)-2-(3,3-dimethylcyclobutyl)ethan-1-one], the activity at 10 µM was -10%.
As for `O=S(=O)(CC1CCCC1)N1CCc2nc(N3C4CCC3CNC4)sc2C1` [Example 107, 2-(3,8-diazabicyclo[3.2.1]octan-8-yl)-5-((cyclopentylmethyl)sulfonyl)-4,5,6,7-tetrahydrothiazolo[5,4-c]pyridine], the activity at 10 µM was -16%.
As for `CC(C)C(=O)N1CCc2nc(N3C4CCC3CNC4)sc2C1` [Example 20, 1-(2-(3,8-diazabicyclo[3.2.1]octan-8-yl)-6,7-dihydrothiazolo[5,4-c]pyridin-5(4H)-yl)-2-methylpropan-1-one], the activity at 10 µM came out at 9%.
For the molecule `COc1cc(F)ccc1CC(=O)N1CCc2nc(N3C4CCC3CNC4)sc2C1` [Example 140, 1-(2-(3,8-diazabicyclo[3.2.1]octan-8-yl)-6,7-dihydrothiazolo[5,4-c]pyridin-5(4H)-yl)-2-(4-fluoro-2-methoxyphenyl)ethan-1-one], the activity at 10 µM is 0%.
Take `CC(C)C(O)C(=O)N1CCc2nc(N3C4CCC3CNC4)sc2C1` (stereo not drawn) [Example 28, 1-(2-(3,8-diazabicyclo[3.2.1]octan-8-yl)-6,7-dihydrothiazolo[5,4-c]pyridin-5(4H)-yl)-2-hydroxy-3-methylbutan-1-one]: the activity at 10 µM came to 3%.

The record behind these values is US20250388604A1, “Compounds and Their Use as PDE4 Activators” (Mironid Limited, priority 2022, published 2025).
